From ChEMBL document CHEMBL1201862, “PubChem BioAssay data set” (2004)
Values belong to the compound of their own block, whether it stands above or below them. Calls of active or inactive are those of the source.

How the values were obtained:
[1] = viability of uninfected HEp-2 cells – cell-based, HTS, cytotoxicity control for RSV inhibitor project, dose response (AID 2410); assay type: functional; details: human respiratory syncytial virus
[2] = molecular target: Cytochrome P450 2D6 (Homo sapiens, UniProt P10635);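 also: CYP2D6 member of a cytochrome P450 panel assay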
[3] = molecular target: T1, Cytochrome P450 1A2 (Homo sapiens, UniProt P05177);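 also: PubChem cytochrome P450 panel assay, CYP1A2 panel member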
T1 sequence (P05177 whole entry): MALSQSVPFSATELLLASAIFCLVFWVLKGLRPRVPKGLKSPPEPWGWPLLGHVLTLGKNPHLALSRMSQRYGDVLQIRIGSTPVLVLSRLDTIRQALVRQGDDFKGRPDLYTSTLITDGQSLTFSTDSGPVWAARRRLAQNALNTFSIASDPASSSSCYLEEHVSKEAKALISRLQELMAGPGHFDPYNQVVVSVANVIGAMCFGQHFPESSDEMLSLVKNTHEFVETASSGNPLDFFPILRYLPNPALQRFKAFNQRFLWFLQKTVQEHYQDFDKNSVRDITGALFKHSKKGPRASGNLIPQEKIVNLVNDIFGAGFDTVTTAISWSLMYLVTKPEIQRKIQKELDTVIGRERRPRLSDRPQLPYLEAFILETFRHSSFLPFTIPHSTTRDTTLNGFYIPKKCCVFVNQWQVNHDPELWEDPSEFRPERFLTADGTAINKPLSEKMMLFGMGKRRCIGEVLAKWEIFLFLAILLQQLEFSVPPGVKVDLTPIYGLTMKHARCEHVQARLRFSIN

[4] = molecular target: T2, Heat shock factor protein 1 (Mus musculus, UniProt P38532); assay: decrease of HSF1-responsive luciferase luminescence – cell-based, NIH3T3, dose retest, confirmation (AID 2382); assay type: functional;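 also: NIH3T3 fibroblasts with HSF1-driven luciferase reporter stressed by proteasome inhibitor MG132; luminescence from HSF1-driven luciferase expression after 8 hours of MG132 stress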
T2 sequence (P38532 whole entry): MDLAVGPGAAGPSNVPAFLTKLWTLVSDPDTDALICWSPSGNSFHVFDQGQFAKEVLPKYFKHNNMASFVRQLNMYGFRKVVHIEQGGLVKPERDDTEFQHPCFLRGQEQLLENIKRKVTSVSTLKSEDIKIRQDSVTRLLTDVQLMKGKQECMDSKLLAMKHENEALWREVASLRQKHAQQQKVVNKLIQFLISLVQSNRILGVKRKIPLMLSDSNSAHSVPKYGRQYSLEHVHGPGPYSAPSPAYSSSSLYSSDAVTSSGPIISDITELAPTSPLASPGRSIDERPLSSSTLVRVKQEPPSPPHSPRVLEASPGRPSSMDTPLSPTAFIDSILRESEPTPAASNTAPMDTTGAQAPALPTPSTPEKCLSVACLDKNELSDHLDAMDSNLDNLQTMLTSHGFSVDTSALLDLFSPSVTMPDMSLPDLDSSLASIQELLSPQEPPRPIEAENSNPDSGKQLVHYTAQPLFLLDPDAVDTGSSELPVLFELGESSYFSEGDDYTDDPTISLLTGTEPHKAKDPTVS

[5] = molecular target: Cytochrome P450 3A4 (Homo sapiens, UniProt P08684);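 also: CYP3A4 tested as one member of a cytochrome P450 panel screen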
[6] = Trypanosoma cruzi growth suppression in host cells – NIH3T3 host cells, beta-gal luminescence, confirmation (AID 2044); assay type: functional, cell-based;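 also: intracellular parasites grown in NIH/3T3 mouse fibroblasts as host cells; luminescent beta-galactosidase reporter signal from transgenic T. cruzi replicating inside host cells; inhibitors lower the luminescence signal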
[7] = NIH3T3 cell viability loss – ATP luminescence, mouse fibroblasts, counter-screen, dose response (AID 2010); assay type: functional, cell-based;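 also: cells exposed to compound for about 90 hours before reading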
[8] = molecular target: Cytochrome P450 2C19 (Homo sapiens, UniProt P33261); assay: Cytochrome panel assay with activity outcomes. Panel member name: p450-cyp2c19 Compounds with AC50 equal or less than 10 uM are considered active; assay type: functional
[9] = molecular target: Cytochrome P450 2C9 (Homo sapiens, UniProt P11712)
[10] = molecular target: T3, Corticotropin-releasing factor receptor 2/Corticotropin-releasing factor-binding protein (Homo sapiens, UniProt P24387+Q13324); assay: activators of CRF receptor 2 with binding protein – uHTS hits, confirmation (AID 602473); assay type: functional; details: read-out: EC50_Mean
T3 sequence (Q13324 whole entry): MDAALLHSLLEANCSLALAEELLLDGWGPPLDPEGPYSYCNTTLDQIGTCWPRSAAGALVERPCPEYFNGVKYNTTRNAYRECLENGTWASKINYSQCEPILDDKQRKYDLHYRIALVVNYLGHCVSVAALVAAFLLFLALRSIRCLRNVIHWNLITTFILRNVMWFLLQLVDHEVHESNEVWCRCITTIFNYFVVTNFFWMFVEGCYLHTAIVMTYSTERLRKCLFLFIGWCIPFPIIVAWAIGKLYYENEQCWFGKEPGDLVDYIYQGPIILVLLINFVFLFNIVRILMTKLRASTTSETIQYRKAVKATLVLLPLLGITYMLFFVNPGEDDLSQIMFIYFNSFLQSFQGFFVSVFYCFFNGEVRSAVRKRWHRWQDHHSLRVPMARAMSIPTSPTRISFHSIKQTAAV
T3 sequence (P24387 whole entry): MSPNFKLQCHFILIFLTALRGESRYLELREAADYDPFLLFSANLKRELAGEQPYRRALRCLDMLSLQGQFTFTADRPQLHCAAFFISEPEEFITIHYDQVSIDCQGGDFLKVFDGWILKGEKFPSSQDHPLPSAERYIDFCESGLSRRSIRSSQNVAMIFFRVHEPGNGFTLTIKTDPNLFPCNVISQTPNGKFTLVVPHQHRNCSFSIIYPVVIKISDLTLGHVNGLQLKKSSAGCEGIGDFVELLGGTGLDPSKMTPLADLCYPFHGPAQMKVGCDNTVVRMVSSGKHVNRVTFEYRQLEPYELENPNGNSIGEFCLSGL

[11] = system: Streptococcus sp. 'group A'; assay: Streptococcus pyogenes SK(-)GAS viability under kanamycin – luminescence, BacTiterGlo, confirmation, counter-screen for streptokinase expression inhibitor project, dose response (AID 1900); assay type: functional, organism-based
[12] = system: Streptococcus; assay: GAS UMAA2166 growth inhibition – luminescence, BacTiterGlo, counter-screen for streptokinase expression inhibitor project, dose response (AID 1915); assay type: functional, organism-based;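 also: potency for reduction of bacterial viability or growth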
[13] = Luminescence Cell-Based Dose Retest to Confirm Inhibitors of Cancer Stem Cells. [Related pubchem assays (depositor defined):AID2717, AID2721]; assay type: functional; details: Homo sapiens

Cytochrome P450 2C19, sequence (P33261 whole entry): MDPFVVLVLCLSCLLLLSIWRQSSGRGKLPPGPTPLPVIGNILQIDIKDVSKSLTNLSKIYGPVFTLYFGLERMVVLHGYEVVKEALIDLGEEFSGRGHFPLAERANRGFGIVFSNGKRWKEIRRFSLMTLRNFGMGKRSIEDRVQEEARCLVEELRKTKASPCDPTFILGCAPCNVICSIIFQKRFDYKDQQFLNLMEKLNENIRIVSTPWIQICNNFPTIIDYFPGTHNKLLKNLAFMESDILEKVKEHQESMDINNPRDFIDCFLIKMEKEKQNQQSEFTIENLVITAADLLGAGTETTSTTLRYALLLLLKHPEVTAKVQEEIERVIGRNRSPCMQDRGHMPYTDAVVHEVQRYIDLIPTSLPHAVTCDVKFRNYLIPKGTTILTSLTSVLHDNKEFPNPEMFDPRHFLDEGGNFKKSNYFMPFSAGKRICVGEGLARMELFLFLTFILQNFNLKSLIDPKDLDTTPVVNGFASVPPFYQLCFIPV
Cytochrome P450 3A4, sequence (P08684 whole entry): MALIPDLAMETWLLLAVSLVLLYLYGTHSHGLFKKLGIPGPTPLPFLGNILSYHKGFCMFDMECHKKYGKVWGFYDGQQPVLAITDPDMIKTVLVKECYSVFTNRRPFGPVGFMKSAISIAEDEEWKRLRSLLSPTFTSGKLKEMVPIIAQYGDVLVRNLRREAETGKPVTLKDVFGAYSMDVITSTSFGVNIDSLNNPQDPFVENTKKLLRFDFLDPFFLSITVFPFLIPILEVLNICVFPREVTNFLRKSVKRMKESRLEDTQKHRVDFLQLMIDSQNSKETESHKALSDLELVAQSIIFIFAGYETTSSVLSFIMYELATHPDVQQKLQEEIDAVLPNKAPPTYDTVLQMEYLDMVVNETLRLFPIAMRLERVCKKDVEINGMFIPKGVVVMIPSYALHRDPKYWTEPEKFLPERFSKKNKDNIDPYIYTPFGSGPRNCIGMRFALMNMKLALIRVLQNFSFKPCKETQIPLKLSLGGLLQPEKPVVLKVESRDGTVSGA
Cytochrome P450 2D6, sequence (P10635 whole entry): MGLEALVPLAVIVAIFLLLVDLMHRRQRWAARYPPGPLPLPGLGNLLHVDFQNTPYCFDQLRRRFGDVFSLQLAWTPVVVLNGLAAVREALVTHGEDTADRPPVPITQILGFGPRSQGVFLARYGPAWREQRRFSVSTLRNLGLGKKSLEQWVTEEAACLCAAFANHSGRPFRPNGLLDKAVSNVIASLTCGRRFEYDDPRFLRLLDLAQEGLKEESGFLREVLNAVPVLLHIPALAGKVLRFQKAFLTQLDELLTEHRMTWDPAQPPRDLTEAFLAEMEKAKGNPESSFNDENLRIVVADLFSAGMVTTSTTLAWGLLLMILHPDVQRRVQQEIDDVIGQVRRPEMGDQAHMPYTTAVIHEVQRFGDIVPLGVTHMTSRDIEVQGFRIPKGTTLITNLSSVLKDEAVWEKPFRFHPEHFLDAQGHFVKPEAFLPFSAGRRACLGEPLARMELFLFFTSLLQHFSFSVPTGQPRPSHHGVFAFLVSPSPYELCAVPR
Cytochrome P450 2C9, sequence (P11712 whole entry): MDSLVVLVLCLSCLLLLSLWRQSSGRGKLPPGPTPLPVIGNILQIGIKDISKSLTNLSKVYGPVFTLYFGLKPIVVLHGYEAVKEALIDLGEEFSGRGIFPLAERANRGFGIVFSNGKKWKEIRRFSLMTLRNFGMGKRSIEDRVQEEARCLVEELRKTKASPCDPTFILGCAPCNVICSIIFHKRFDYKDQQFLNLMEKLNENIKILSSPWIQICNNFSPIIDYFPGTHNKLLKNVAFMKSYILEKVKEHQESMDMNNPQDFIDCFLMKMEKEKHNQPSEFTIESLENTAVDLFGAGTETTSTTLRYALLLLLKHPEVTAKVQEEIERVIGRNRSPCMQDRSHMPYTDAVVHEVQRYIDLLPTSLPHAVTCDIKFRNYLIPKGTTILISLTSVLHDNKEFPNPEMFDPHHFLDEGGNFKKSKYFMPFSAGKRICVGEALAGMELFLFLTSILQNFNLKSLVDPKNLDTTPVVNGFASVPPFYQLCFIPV

AC50 [2]: 12.6 µM (inconclusive)
AC50 [3]: 25.1 µM (inconclusive)
SMILES: [O-][S+](Cc1ccc(Br)cc1)Cc1nnc(SCc2ccc(Cl)cc2)n1-c1ccccc1 (stereo not given)

AC50 [2]: 31.6 µM (inconclusive)
AC50 [3]: 12.6 µM (inconclusive)
SMILES: COc1cccc(Cn2c(=O)c(CCc3ccccc3)nc3cnc(N4CCNCC4)nc32)c1

EC50 [4]: > 195 µM (not active)
SMILES: CCOC(=O)c1nnn(CC(=O)NC(=O)Nc2ccc(F)cc2)c1C(=O)OCC

AC50 [5]: 3.98 µM (inconclusive)
SMILES: N#Cc1nc(-c2ccc(OCc3ccccc3)cc2)oc1NCCN1CCOCC1

AC50 [8]: 7.94 µM (inconclusive)
AC50 [3]: 5.01 µM (inconclusive)
AC50 [9]: 5.01 µM (inconclusive)
SMILES: C[C@H]1C[C@@H]2[C@H]3CCC4=CC(=O)C=C[C@@]4(C)[C@@]3(Cl)[C@@H](O)C[C@]2(C)[C@]1(OC(=O)c1ccco1)C(=O)CCl

AC50 [5]: 0.0251 µM (inconclusive)
AC50 [9]: 25.1 µM (inconclusive)
SMILES: Cn1c(=O)c(CCc2ccccc2)nc2cnc(N3CCNCC3)nc21

EC50 [4]: > 195 µM (not active)
SMILES: CCOc1ccc2ccccc2c1CNc1nnnn1CC

AC50 [3]: 12.6 µM (inconclusive)
AC50 [5]: 15.8 µM (inconclusive)
SMILES: O=C(Nc1cccc(F)c1)N1CC[C@@]2(CCCN(C(=O)c3cccc(F)c3)C2)C1

AC50 [5]: 15.8 µM (inconclusive)
SMILES: N#Cc1cccc(NC(=O)N2CCCC3(CCN(C(=O)c4csnn4)CC3)C2)c1

AC50 [8]: 31.6 µM (inconclusive)
SMILES: CCC(CC)C(=O)NCCN1CCN(C(=O)C(CC)CC)CC1

EC50 [4]: > 195 µM (not active)
SMILES: Cc1noc(/C=C/N(C)C)c1S(=O)(=O)N1CCN(c2ccc(F)cc2)CC1

AC50 [5]: 14.1 µM (inconclusive)
SMILES: CC1=CC(=C2C(=O)c3ccccc3C2=O)C=C(C)O1

EC50 [10]: 6.78 µM (active)
SMILES: CSCCC(NC(=O)c1ccco1)C(=O)N1CC=C(c2ccccc2)CC1 (stereo not given)

AC50 [8]: 15.8 µM (inconclusive)
AC50 [3]: 28.2 µM (inconclusive)
AC50 [9]: 0.0794 µM (inconclusive)
SMILES: CC1(C)CC(=O)C2=C(C1)N(Cc1cccnc1)C(=O)C2(NC(=O)c1cccnc1)C(F)(F)F (stereo not given)

AC50 [5]: 3.98 µM (inconclusive)
AC50 [9]: 3.16 µM (inconclusive)
SMILES: CC(=O)OC[C@@H]1O[C@H](CCO/N=C(\C)CCN2CCc3nc(-c4ccccc4)c(-c4ccccc4)cc3C2)C=C[C@@H]1OC(C)=O

AC50 [8]: 20 µM (inconclusive)
AC50 [2]: 31.6 µM (inconclusive)
AC50 [3]: 10 µM (inconclusive)
AC50 [9]: 31.6 µM (inconclusive)
SMILES: CCNc1ncc2nc(-c3cccs3)c(=O)n(Cc3ccc(F)cc3)c2n1

AC50 [2]: 25.1 µM (inconclusive)
AC50 [5]: 15.8 µM (inconclusive)
AC50 [9]: 15.8 µM (inconclusive)
SMILES: CCNc1ncc2ncc(=O)n(CCc3ccccc3)c2n1

EC50 [4]: > 195 µM (not active)
SMILES: Cc1ccc(N(CC(=O)NC2CCCCC2)C(=O)CNC(=O)c2ccco2)c(C)c1

AC50 [8]: 20 µM (inconclusive)
AC50 [9]: 28.2 µM (inconclusive)
SMILES: COc1ccc(NC(=O)N2CCCC2C(=O)Nc2ccccc2)cc1 (stereo not given)

AC50 [3]: 14.1 µM (inconclusive)
AC50 [5]: 22.4 µM (inconclusive)
SMILES: COC(=O)C(NC(=O)c1ccccc1)=C1C=C(C)OC(C)=C1

AC50 [8]: 11.2 µM (inconclusive)
AC50 [5]: 22.4 µM (inconclusive)
SMILES: C/C(=N\O)c1ccc2[nH]ccc2c1

AC50 [8]: 39.8 µM (inconclusive)
AC50 [9]: 14.1 µM (inconclusive)
SMILES: COC(=O)C1C(O)=C(/C=N/Cc2ccccc2)C(=O)CC1(C)C (stereo not given)

More lines, now with the values behind:

SMILES: O=S(=O)(NC1CC1)c1ccc(S(=O)(=O)N2CCC(c3nc(O)c4nnn(Cc5cccc(F)c5)c4n3)CC2)cc1
CC50 [1]: 24.8 µM (active)

SMILES: COc1cc(OC)c(C(=O)Nc2ccccc2-c2ccccc2)cc1OC
CC50 [1]: 18.9 µM (active)

SMILES: CCOC(=O)C1=C(N)Oc2cc(O)ccc2C1c1ccc([N+](=O)[O-])cc1 (stereo not given)
CC50 [1]: 16.9 µM (active)
EC50 [6]: 0.659 µM (active)
EC50 [7]: > 60 µM (not active)

SMILES: CCc1ccc(/C=C2\Oc3cc(OC(=O)N4CCOCC4)ccc3C2=O)cc1
EC50 [4]: > 195 µM (not active)

SMILES: COc1ccc(NC(=O)N2CC[C@@]3(CCCN(C(=O)Oc4ccccc4)C3)C2)cc1
AC50 [8]: 15.8 µM (inconclusive)
AC50 [5]: 39.8 µM (inconclusive)
AC50 [9]: 25.1 µM (inconclusive)

SMILES: Cc1ccc(C(C)C)c2c1C(c1ccc3c(c1)OCO3)CC(=O)O2 (stereo not given)
EC50 [10]: 4.51 µM (active)

SMILES: S=C(c1ccc(-c2ccc(Br)cc2)o1)N1CCCCC1
CC50 [1]: 29.3 µM (active)

SMILES: CSc1cccc(NC(=O)Cn2cccc2)c1
AC50 [2]: 14.1 µM (inconclusive)
AC50 [5]: 22.4 µM (inconclusive)

SMILES: Cc1nn(C)c(Cl)c1CN1CCCC(CO)(Cc2cccc(Cl)c2)C1 (stereo not given)
CC50 [1]: 43.6 µM (active)

SMILES: CC(C)=C[C@H]1[C@@H](C(=O)OCc2cc3c(cc2Cl)OCO3)C1(C)C
AC50 [2]: 5.01 µM (inconclusive)
AC50 [3]: 0.794 µM (inconclusive)
AC50 [9]: 3.16 µM (inconclusive)

SMILES: Cc1cc(C(=O)C(=O)NC(C)C)c(C)n1-c1ccc([N+](=O)[O-])cc1
AC50 [8]: 0.0708 µM (inconclusive)

SMILES: Cc1cccc(N2CCN(C(=O)Cc3ccc(-n4c(=O)[nH]c5ccsc5c4=O)cc3)CC2)c1C
CC50 [1]: 30.2 µM (active)

SMILES: COCCn1c(=O)c(-c2ccccc2)nc2cnc(Oc3ccccc3)nc21
AC50 [5]: 31.6 µM (inconclusive)

SMILES: CCOc1ccc(S(=O)(=O)N2CCN(C(=O)c3cc(-c4ccccc4)nn3-c3ccccc3)CC2)cc1
CC50 [1]: 48 µM (active)

SMILES: Cc1ccc(-c2nc3ccccc3c(=O)n2-c2ncccc2C)cc1
AC50 [8]: 28.2 µM (inconclusive)
AC50 [9]: 17.8 µM (inconclusive)

SMILES: COc1ccc2c(c1)OC[C@H]1[C@H]2N2C(=O)CN(Cc3ccc(Cl)cc3)C(=O)[C@@]2(C)[C@H]1c1ccccc1
CC50 [1]: 14.7 µM (active)

SMILES: CCOc1ccc(NC(=O)c2nnn(CC(=O)Nc3ccccc3OC)c2N)cc1
AC50 [8]: 3.55 µM (inconclusive)

SMILES: CC(C)=CCC12Oc3cc(O)ccc3C1(O)Oc1cc3c(c(O)c1C2=O)C=CC(C)(C)O3 (stereo not given)
EC50 [11]: 3.32 µM (active)
EC50 [12]: 3.92 µM (active)

SMILES: COc1ccc(-c2csc(-c3cccnc3)n2)cc1C
CC50 [1]: 38.8 µM (active)

SMILES: CC1(C(=O)CSc2nc3ccccc3s2)CCC(=O)O1 (stereo not given)
AC50 [3]: 3.55 µM (inconclusive)
AC50 [5]: 14.1 µM (inconclusive)

SMILES: Cc1ccc(C(=O)NCCNC(=O)c2ccc(F)cc2)cn1
EC50 [10]: > 53 µM (inactive)

SMILES: Cc1nn(-c2ccccc2)c(N2CCCCC2)c1/C=N/O
AC50 [13]: 3.97 µM (active)
AC50 [5]: 14.1 µM (inconclusive)
AC50 [9]: 7.08 µM (inconclusive)

SMILES: COc1c(CC=C(C)C)c(O)cc2oc(=O)c3c4ccc(O)cc4oc3c12 [GLYCYROL]
CC50 [1]: 26.5 µM (active)
